Source: US20240409585A1, “MACROCYCLIC IMMUNOMODULATORS” (priority 2021, published 2024)
Bridge positions count the residues as written; N and C are the ends. Square brackets hold non-standard residues; d marks the D form. Peptide text beside a SMILES is read from it. * marks the point of attachment. Phe(3-CF3) = N[C@@H](Cc1cccc(C(F)(F)F)c1)C(=O)O; Phe(4-COOH) = N[C@@H](Cc1ccc(C(=O)O)cc1)C(=O)O; Bip = N[C@@H](Cc1ccc(-c2ccccc2)cc1)C(=O)O; Phe(3-CN) = N#Cc1cccc(C[C@H](N)C(=O)O)c1; Phe(3-OMe) = COc1cccc(C[C@H](N)C(=O)O)c1; Phe(4-CN) = N#Cc1ccc(C[C@H](N)C(=O)O)cc1; Phe(3-Me) = Cc1cccc(C[C@H](N)C(=O)O)c1; Phe(2-F) = N[C@@H](Cc1ccccc1F)C(=O)O; 4Pal = N[C@@H](Cc1ccncc1)C(=O)O; Cha = N[C@@H](CC1CCCCC1)C(=O)O; Cit = NC(=O)NCCC[C@H](N)C(=O)O; Carboxymethyl = O=C(O)C*; NMeA = CN[C@@H](C)C(=O)O; Dab = NCC[C@H](N)C(=O)O; Dap = NC[C@H](N)C(=O)O

biological target: T1, PE-labeled human PD-L1-Ig binding to Jurkat cell line over-expressing human PD-1 (Jurkat-PD-1) (Homo sapiens, UniProt Q15116); test: Jurkat-PD-1 Cell Binding High-Content Screening Assay (CBA): Method 1; conditions: Jurkat-hPD-1 cells, PE-labeled PD-L1-Ig 20 nM final; read-out: Jurkat HPDL1 PD1 IC50 (uM) (Method 1)
T1 construct: expressed in transfected cells; host or cells: Jurkat
T1 sequence (Q15116 25-288): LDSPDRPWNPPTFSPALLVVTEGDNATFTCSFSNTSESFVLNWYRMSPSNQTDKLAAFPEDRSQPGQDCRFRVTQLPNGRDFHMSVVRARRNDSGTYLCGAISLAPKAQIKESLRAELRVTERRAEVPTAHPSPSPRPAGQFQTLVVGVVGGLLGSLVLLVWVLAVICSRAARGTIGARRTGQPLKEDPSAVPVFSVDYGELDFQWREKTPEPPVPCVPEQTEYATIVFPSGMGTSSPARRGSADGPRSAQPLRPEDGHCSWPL

Row | IC50 [µM] | SMILES
1 | 0.01 | Cc1cccc(C[C@@H]2NC(=O)[C@H](CC(=O)O)NC(=O)[C@H](Cc3ccc(OCC(=O)O)cc3)NC(=O)[C@H](Cc3ccncc3)NC(=O)CSC[C@@H](C(=O)N[C@@H](C)C(N)=O)NC(=O)[C@H]([C@@H](C)O)NC(=O)[C@H](C(C)C)NC(=O)[C@H](CC(C)C)NC(=O)[C@H](CCN)NC(=O)[C@@H](CC(C)C)NC(=O)[C@H](C)N(C)C(=O)[C@H](C(C)C)NC(=O)[C@H](Cc3ccc(-c4ccccc4)cc3)NC(=O)[C@H](C(C)C)NC2=O)c1 [Compound 1419] ({CH2CO}-[4Pal]Y(Carboxymethyl)D[Phe(3-Me)]V[Bip]V[NMeA][dL][Dab]LVTCA-NH2; thioether N-14)
2 | 0.01 | Cc1cccc(C[C@@H]2NC(=O)[C@H](CC(=O)O)NC(=O)[C@H](Cc3ccc(C(=O)O)cc3)NC(=O)[C@H](Cc3ccncc3)NC(=O)CSC[C@@H](C(=O)N[C@@H](C)C(N)=O)NC(=O)[C@H]([C@@H](C)O)NC(=O)[C@H](C(C)C)NC(=O)[C@H](CC(C)C)NC(=O)[C@H](CCN)NC(=O)[C@@H](CC(C)C)NC(=O)[C@H](C)N(C)C(=O)[C@H](C(C)C)NC(=O)[C@H](Cc3ccc(-c4ccccc4)cc3)NC(=O)[C@H](C(C)C)NC2=O)c1 [Compound 1420] ({CH2CO}-[4Pal][Phe(4-COOH)]D[Phe(3-Me)]V[Bip]V[NMeA][dL][Dab]LVTCA-NH2; thioether N-14)
3 | 0.01 | Cc1cccc(C[C@@H]2NC(=O)[C@H](CC(=O)O)NC(=O)[C@H](Cc3ccc(OCC(=O)O)cc3)NC(=O)[C@H](Cc3ccncc3)NC(=O)CSC[C@@H](C(=O)N[C@@H](C)C(N)=O)NC(=O)[C@H]([C@@H](C)O)NC(=O)[C@H](C(C)C)NC(=O)[C@H](CC(C)C)NC(=O)[C@H](CCN)NC(=O)[C@@H](CC(C)C)NC(=O)[C@H](C)N(C)C(=O)[C@H](CCCNC(N)=O)NC(=O)[C@H](Cc3ccc(-c4ccccc4)cc3)NC(=O)[C@H](C(C)C)NC2=O)c1 [Compound 1421] ({CH2CO}-[4Pal]Y(Carboxymethyl)D[Phe(3-Me)]V[Bip][Cit][NMeA][dL][Dab]LVTCA-NH2; thioether N-14)
4 | 0.05 | Cc1cccc(C[C@@H]2NC(=O)[C@H](CC(=O)O)NC(=O)[C@H](Cc3ccc(O)cc3)NC(=O)[C@H](CN)NC(=O)CSC[C@@H](C(=O)N[C@@H](C)C(N)=O)NC(=O)[C@H]([C@@H](C)O)NC(=O)[C@H](C(C)C)NC(=O)[C@H](CC(C)C)NC(=O)[C@H](CCN)NC(=O)[C@@H](CC(C)C)NC(=O)[C@H](C)N(C)C(=O)[C@H](CCCNC(N)=O)NC(=O)[C@H](Cc3ccc(-c4ccccc4)cc3)NC(=O)[C@H](C(C)C)NC2=O)c1 [Compound 1422] ({CH2CO}-[Dap]YD[Phe(3-Me)]V[Bip][Cit][NMeA][dL][Dab]LVTCA-NH2; thioether N-14)
5 | 0.07 | COc1cccc(C[C@@H]2NC(=O)[C@H](CN)NC(=O)CSC[C@@H](C(=O)N[C@@H](C)C(N)=O)NC(=O)[C@H]([C@@H](C)O)NC(=O)[C@H](C(C)C)NC(=O)[C@H](CC(C)C)NC(=O)[C@H](CCN)NC(=O)[C@@H](CC(C)C)NC(=O)[C@H](C)N(C)C(=O)[C@H](Cc3cnc[nH]3)NC(=O)[C@H](Cc3ccc(-c4ccccc4)cc3)NC(=O)[C@H](C(C)C)NC(=O)[C@H](Cc3c[nH]c4ccccc34)NC(=O)[C@H](CC(=O)O)NC2=O)c1 [Compound 1423] ({CH2CO}-[Dap][Phe(3-OMe)]DWV[Bip]H[NMeA][dL][Dab]LVTCA-NH2; thioether N-14)
6 | 0.05 | CC(C)C[C@@H]1NC(=O)[C@H](CCN)NC(=O)[C@@H](CC(C)C)NC(=O)[C@H](C)N(C)C(=O)[C@H](Cc2cnc[nH]2)NC(=O)[C@H](Cc2ccc(-c3ccccc3)cc2)NC(=O)[C@H](C(C)C)NC(=O)[C@H](Cc2c[nH]c3ccccc23)NC(=O)[C@H](CC(=O)O)NC(=O)[C@H](Cc2ccc(O)cc2)NC(=O)[C@H](CN)NC(=O)CSC[C@@H](C(=O)N[C@@H](C)C(N)=O)NC(=O)[C@H]([C@@H](C)O)NC(=O)[C@H](C(C)C)NC1=O [Compound 1424] ({CH2CO}-[Dap]YDWV[Bip]H[NMeA][dL][Dab]LVTCA-NH2; thioether N-14)
7 | 0.14 | CC(C)C[C@@H]1NC(=O)[C@H](CCN)NC(=O)[C@@H](CC(C)C)NC(=O)[C@H](C)N(C)C(=O)[C@H](Cc2cnc[nH]2)NC(=O)[C@H](Cc2ccc(-c3ccccc3)cc2)NC(=O)[C@H](C(C)C)NC(=O)[C@H](Cc2c[nH]c3ccccc23)NC(=O)[C@H](CC(=O)O)NC(=O)[C@H](Cc2ccccc2F)NC(=O)[C@H](CN)NC(=O)CSC[C@@H](C(=O)N[C@@H](C)C(N)=O)NC(=O)[C@H]([C@@H](C)O)NC(=O)[C@H](C(C)C)NC1=O [Compound 1425] ({CH2CO}-[Dap][Phe(2-F)]DWV[Bip]H[NMeA][dL][Dab]LVTCA-NH2; thioether N-14)
8 | 0.01 | CC(C)C[C@@H]1NC(=O)[C@H](Cc2c[nH]c3ccccc23)NC(=O)[C@H](CC(=O)O)NC(=O)[C@H](Cc2ccc(C(=O)O)cc2)NC(=O)[C@H](Cc2ccc(OCC(=O)O)cc2)NC(=O)CSC[C@@H](C(N)=O)NC(=O)[C@H](CO)NC(=O)[C@H](C(C)C)NC(=O)[C@H](CC2CCCCC2)NC(=O)[C@H](CCN)NC(=O)[C@@H](CC(C)C)NC(=O)[C@H](C)N(C)C(=O)[C@H](C(C)C)NC(=O)[C@H](Cc2ccc(-c3ccccc3)cc2)NC1=O [Compound 1426] ({CH2CO}-Y(Carboxymethyl)[Phe(4-COOH)]DWL[Bip]V[NMeA][dL][Dab][Cha]VSC-NH2; thioether N-14)
9 | 0.11 | COc1cccc(C[C@@H]2NC(=O)[C@H](CN)NC(=O)CSC[C@@H](C(=O)N[C@@H](C)C(N)=O)NC(=O)[C@H]([C@@H](C)O)NC(=O)[C@H](C(C)C)NC(=O)[C@H](CC(C)C)NC(=O)[C@H](CCN)NC(=O)[C@@H](CC(C)C)NC(=O)[C@H](C)N(C)C(=O)[C@H](C(C)C)NC(=O)[C@H](Cc3ccc(-c4ccccc4)cc3)NC(=O)[C@H](C(C)C)NC(=O)[C@H](Cc3c[nH]c4ccccc34)NC(=O)[C@H](CC(=O)O)NC2=O)c1 [Compound 1427] ({CH2CO}-[Dap][Phe(3-OMe)]DWV[Bip]V[NMeA][dL][Dab]LVTCA-NH2; thioether N-14)
10 | 0.04 | Cc1cccc(C[C@@H]2NC(=O)[C@H](CC(=O)O)NC(=O)[C@H](Cc3ccc(O)cc3)NC(=O)[C@H](CN)NC(=O)CSC[C@@H](C(=O)N[C@@H](C)C(N)=O)NC(=O)[C@H]([C@@H](C)O)NC(=O)[C@H](C(C)C)NC(=O)[C@H](CC(C)C)NC(=O)[C@H](CCN)NC(=O)[C@@H](CC(C)C)NC(=O)[C@H](C)N(C)C(=O)[C@H](C(C)C)NC(=O)[C@H](Cc3ccc(-c4ccccc4)cc3)NC(=O)[C@H](C(C)C)NC2=O)c1 [Compound 1428] ({CH2CO}-[Dap]YD[Phe(3-Me)]V[Bip]V[NMeA][dL][Dab]LVTCA-NH2; thioether N-14)
11 | 0.01 | Cc1cccc(C[C@@H]2NC(=O)[C@H](CC(=O)O)NC(=O)[C@H](Cc3ccc(C(=O)O)cc3)NC(=O)[C@H](CN)NC(=O)CSC[C@@H](C(=O)N[C@@H](C)C(N)=O)NC(=O)[C@H]([C@@H](C)O)NC(=O)[C@H](C(C)C)NC(=O)[C@H](CC(C)C)NC(=O)[C@H](CCN)NC(=O)[C@@H](CC(C)C)NC(=O)[C@H](C)N(C)C(=O)[C@H](CCCNC(N)=O)NC(=O)[C@H](Cc3ccc(-c4ccccc4)cc3)NC(=O)[C@H](C(C)C)NC2=O)c1 [Compound 1429] ({CH2CO}-[Dap][Phe(4-COOH)]D[Phe(3-Me)]V[Bip][Cit][NMeA][dL][Dab]LVTCA-NH2; thioether N-14)
12 | 0.01 | Cc1cccc(C[C@@H]2NC(=O)[C@H](CC(=O)O)NC(=O)[C@H](Cc3ccc(C(=O)O)cc3)NC(=O)[C@H](Cc3ccncc3)NC(=O)CSC[C@@H](C(=O)N[C@@H](C)C(N)=O)NC(=O)[C@H]([C@@H](C)O)NC(=O)[C@H](C(C)C)NC(=O)[C@H](CC(C)C)NC(=O)[C@H](CCN)NC(=O)[C@@H](CC(C)C)NC(=O)[C@H](C)N(C)C(=O)[C@H](CCCNC(N)=O)NC(=O)[C@H](Cc3ccc(-c4ccccc4)cc3)NC(=O)[C@H](C(C)C)NC2=O)c1 [Compound 1431] ({CH2CO}-[4Pal][Phe(4-COOH)]D[Phe(3-Me)]V[Bip][Cit][NMeA][dL][Dab]LVTCA-NH2; thioether N-14)
13 | 0.05 | CC(C)C[C@@H]1NC(=O)[C@H](CCN)NC(=O)[C@@H](CC(C)C)NC(=O)[C@H](C)N(C)C(=O)[C@H](Cc2cnc[nH]2)NC(=O)[C@H](Cc2ccc(-c3ccccc3)cc2)NC(=O)[C@H](C(C)C)NC(=O)[C@H](Cc2c[nH]c3ccccc23)NC(=O)[C@H](CC(=O)O)NC(=O)[C@H](Cc2cccc(C#N)c2)NC(=O)[C@H](CN)NC(=O)CSC[C@@H](C(=O)N[C@@H](C)C(N)=O)NC(=O)[C@H]([C@@H](C)O)NC(=O)[C@H](C(C)C)NC1=O [Compound 1432] ({CH2CO}-[Dap][Phe(3-CN)]DWV[Bip]H[NMeA][dL][Dab]LVTCA-NH2; thioether N-14)
14 | 0.16 | CC(C)C[C@@H]1NC(=O)[C@H](CCN)NC(=O)[C@@H](CC(C)C)NC(=O)[C@H](C)N(C)C(=O)[C@H](Cc2cnc[nH]2)NC(=O)[C@H](Cc2ccc(-c3ccccc3)cc2)NC(=O)[C@H](C(C)C)NC(=O)[C@H](Cc2c[nH]c3ccccc23)NC(=O)[C@H](CC(=O)O)NC(=O)[C@H](Cc2ccc(C#N)cc2)NC(=O)[C@H](CN)NC(=O)CSC[C@@H](C(=O)N[C@@H](C)C(N)=O)NC(=O)[C@H]([C@@H](C)O)NC(=O)[C@H](C(C)C)NC1=O [Compound 1433] ({CH2CO}-[Dap][Phe(4-CN)]DWV[Bip]H[NMeA][dL][Dab]LVTCA-NH2; thioether N-14)
15 | 0.05 | CC(C)C[C@@H]1NC(=O)[C@H](CCN)NC(=O)[C@@H](CC(C)C)NC(=O)[C@H](C)N(C)C(=O)[C@H](Cc2cnc[nH]2)NC(=O)[C@H](Cc2ccc(-c3ccccc3)cc2)NC(=O)[C@H](C(C)C)NC(=O)[C@H](Cc2c[nH]c3ccccc23)NC(=O)[C@H](CC(=O)O)NC(=O)[C@H](Cc2cccc(C(F)(F)F)c2)NC(=O)[C@H](CN)NC(=O)CSC[C@@H](C(=O)N[C@@H](C)C(N)=O)NC(=O)[C@H]([C@@H](C)O)NC(=O)[C@H](C(C)C)NC1=O [Compound 1434] ({CH2CO}-[Dap][Phe(3-CF3)]DWV[Bip]H[NMeA][dL][Dab]LVTCA-NH2; thioether N-14)
